# Experimental data published in US9144578B2, “Fixed-dose association of phytate and zinc” (Universitat De Les Illes Balears, priority 2006, dated 2015).
# Entries after “also recorded” stand apart in the source; their conditions may differ.
# Assays:
# [1] = in vitro kinetics of precipitation of hydroxyapatite (Example 1, FIG. 1); conditions: [phosphate]=1.5 mM, [Ca^2+]=60 mg/l, pH=7.5
# Protocol: In said FIG. 1 it is shown that the first curve corresponds to direct precipitation without phytate or Zn^2+. The second (Zn^2+) consists of the addition of 0.038 μM of Zn^2+. […] The third curve (Phytate) corresponds to the precipitation of hydroxyapatite in the presence of 0.38 μM of phytate. […] Finally, the last graph (Phytate+Zn^2+) corresponds to the precipitation in the presence of 0.38 μM of phytate and 0.038 μM of Zn^2+ (phytate-Zn molar ratio 10:1).
# An in vitro system was designed to study the kinetics of precipitation of hydroxyapatite. A system using the following experimental conditions: [phosphate]=1.5 mM, [Ca^2+]=60 mg/l, pH=7.5, was used. The kinetics of precipitation of the hydroxyapatite was recorded with a Shimadzu (UV-120-02) spectrophotometer using 3 ml plastic vials and recording the absorbance every 5 minutes at 550 nm.
# [2] = in vitro kinetics of precipitation of hydroxyapatite (Example 2, FIG. 2); conditions: [phosphate]=2.5 mM, [Ca^2+]=60 mg/l, pH=7.5
# Protocol: In said FIG. 2 it is shown that the first series corresponds to the direct precipitation without phytate or Zn^2+. The second consists of the addition of 0.3 μM of Zn^2+. […] The third series corresponds to the precipitation of hydroxyapatite in the presence of 1.5 μM of phytate.
# Finally, two series using 1.5 μM phytate and two different concentrations of zinc: Zn^2+: 0.3 μM (phytate-Zn molar ratio 5:1) and 0.15 μM (phytate-Zn molar ratio 10:1), respectively, are shown.
# With the same system as in example 1, a system using the following experimental conditions: [phosphate]=2.5 mM, [Ca^2+]=60 mg/l, pH=7.5, was used. The kinetics of precipitation of the hydroxyapatite was recorded with a Shimadzu (UV-120-02) spectrophotometer using 3 ml plastic vials and recording the absorbance every 5 minutes at 550 nm.
Compound,inhibiting effect on precipitation of hydroxyapatite ([1]; 0.38 μM of phytate),inhibiting effect on precipitation of hydroxyapatite ([2]; 1.5 μM of phytate),inhibiting effect on precipitation of hydroxyapatite ([1]; 0.038 μM of Zn^2+),inhibiting effect on precipitation of hydroxyapatite ([2]; 0.3 μM of Zn^2+)
"O=P(O)(O)O[C@H]1[C@H](OP(=O)(O)O)[C@@H](OP(=O)(O)O)[C@H](OP(=O)(O)O)[C@@H](OP(=O)(O)O)[C@H]1OP(=O)(O)O [Phytate, Myo-inositol hexaphosphate]",significant inhibiting effect,significant inhibiting effect,–,–
[Zn+2] [Zn^2+],–,–,no inhibiting effect,no inhibiting effect; also recorded: does not show any inhibiting effect
